The conditions of series [1]: rat, 90 day period; cited from earlier work.
The conditions of series [2]: 2 year beagle; cited from earlier work.
For series [3], the system named is mosquitoes. The series is described as follows: Caged mortality test of egg laying structures returned after one month in the field. The settings on record: paper paddles returned to the lab after one month in the field.
Experimental: A field test of a lethal breeding container according to Example 2, containing 0.87 deltramethrin on the egg laying structure, was conducted at three military housing sites in the Rio de Janeiro area of Brazil. At each housing site, six houses were selected to receive the lethal breeding containers. About 500 meters away, six houses were selected to serve as control units.
After one month in the field, the egg laying structures from the lethal container breeding containers were dried and shipped to the U.S. for testing. Four egg laying structures from outside lethal mosquito breeding containers and four egg laying structures from inside lethal mosquito breeding containers were reused in lethal. mosquito breeding containers and the mortality rate was determined.
A 1 cubic foot mosquito cage was used. The mosquitoes are given a blood meal at day 4 to 6 after post-emergence. […]
The mortality rate is determined by counting the number of deceased mosquitoes and live mosquitoes, adding these numbers together to arrive at the total number of mosquitoes exposed, and then dividing number of deceased mosquitoes by the total number of mosquitoes and multiplying that quotient by 100%. […]

Read-outs that look alike come from different tables or passages of the source.

Take `CC1(C)[C@H](C(=O)O[C@H](C#N)c2cccc(Oc3ccccc3)c2)[C@@H]1C=C(Br)Br` [deltamethrin]: the NOEL in series [1] and in series [2] was 1 mg/kg/day in each case. The “average mortality in caged tests” value in series [3] amounted to 80%.
